From PMC4318710 (Bioorganic & medicinal chemistry letters, 2015)

Legend:
[1] = system: C57BL/6 mice; test: in vivo serum iron levels in mice after intraperitoneal peptide injection; conditions: 50-100 nmoles/mouse
[2] = stability on prolonged storage in DMSO; format: physicochemical; conditions: 10 mM solution in DMSO, room temperature, 30 days, LC/MS/MS

SMILES | serum iron at 6 and 24 h time points [1] | stability in DMSO [2] [%]
CCCCCCCCCCCCCCCCNC(=O)CN(CC(N)=O)C(=O)CCCCCNC(=O)C[C@H](Cc1ccccc1)NC(=O)[C@H](CCCNC(=N)N)NC(=O)[C@H](CSC(=CP(=O)(OCC)OCC)P(=O)(OCC)OCC)NC(=O)[C@H](CCCNC(=N)N)NC(=O)C[C@@H]1CCCN1C(=O)[C@@H](NC(=O)[C@H](Cc1c[nH]cn1)NC(=O)[C@@H](NC(=O)CNCC(=O)O)[C@@H](C)O)C(c1ccccc1)c1ccccc1 [PR73SH] | decreased serum iron | 99.5±0.5
CCCCCCCCCCCCCCCCNC(=O)CN(CC(N)=O)C(=O)CCCCCNC(=O)C[C@H](Cc1ccccc1)NC(=O)[C@H](CCCNC(=N)N)NC(=O)[C@H](CS)NC(=O)[C@H](CCCNC(=N)N)NC(=O)C[C@@H]1CCCN1C(=O)[C@@H](NC(=O)[C@H](Cc1c[nH]cn1)NC(=O)[C@@H](NC(=O)CNCC(=O)O)[C@@H](C)O)C(c1ccccc1)c1ccccc1 [PR73] | decreased serum iron | –
